“And” between values parts separate entries of the source, which are not always exact repeats. Equal entries are not always repeated.
Conditions: Liquid, Transpiration

CN1CCN(CCN)CC1 [1-(2-aminoethyl)-4-methyl-piperazine]
Conditions	vapor or sublimation pressure
297.8 K	0.0246 kPa
298.8 K	0.0265 kPa
302 K	0.0341 kPa
302.7 K	0.0368 kPa
304.6 K	0.0433 kPa
307.2 K	0.0548 kPa and 0.0538 kPa
310.5 K	0.0691 kPa
311.6 K	0.0765 kPa
313.2 K	0.085 kPa
314.3 K	0.0925 kPa
315.9 K	0.1026 kPa
317.1 K	0.1153 kPa
320.2 K	0.1434 kPa
323.7 K	0.1872 kPa
327.7 K	0.2497 kPa
331.8 K	0.3218 kPa

NCCNCCNCCN [1,2-ethanediamine, N,N'-bis(2-aminoethyl)-]
Conditions	vapor or sublimation pressure
338.2 K	0.00866 kPa
340.7 K	0.01059 kPa
343.5 K	0.0135 kPa
346.3 K	0.01645 kPa
347.2 K	0.01792 kPa
348.2 K	0.01944 kPa
349.4 K	0.0209 kPa
350.1 K	0.022 kPa
350.2 K	0.02259 kPa
352.4 K	0.02695 kPa
353.2 K	0.02857 kPa
355.2 K	0.03317 kPa
355.4 K	0.03445 kPa
356.2 K	0.03575 kPa
358.5 K	0.04226 kPa
359.2 K	0.04519 kPa
361.2 K	0.05252 kPa
363.2 K	0.05873 kPa
364.2 K	0.0654 kPa
365.4 K	0.06908 kPa
367.4 K	0.07992 kPa
368.1 K	0.08563 kPa and 0.08484 kPa
370.2 K	0.09747 kPa
370.4 K	0.09756 kPa
371 K	0.1008 kPa
373.3 K	0.1176 kPa

CN1CCN(C)CC1 [1,4-dimethylpiperazine]
Conditions	vapor or sublimation pressure [kPa]
268.1 K	0.2307
270.3 K	0.2719
274.1 K	0.3511
274.8 K	0.3656
278.5 K	0.486
280.1 K	0.5177
283.6 K	0.6602
286.1 K	0.7611
288.5 K	0.8272
291.1 K	0.9973
293.6 K	1.116
296.1 K	1.359
298.5 K	1.561
301.1 K	1.834
303.4 K	2.102
306.1 K	2.518
308.5 K	2.6
311.1 K	3.202

NCCN1CCNCC1 [N-(β-aminoethyl)piperazine)]
Conditions	vapor or sublimation pressure
295.7 K	0.0064 kPa
297.7 K	0.0079 kPa
300.4 K	0.0096 kPa
303.3 K	0.0127 kPa and 0.0131 kPa
304.7 K	0.0144 kPa
305.6 K	0.015 kPa
308.2 K	0.0193 kPa
310.2 K	0.0227 kPa
312.6 K	0.028 kPa
314.6 K	0.0333 kPa
317.5 K	0.0414 kPa
320.7 K	0.0534 kPa
323.1 K	0.0653 kPa
326.4 K	0.0835 kPa
328.2 K	0.0943 kPa
330.5 K	0.1135 kPa
330.7 K	0.1203 kPa
333.1 K	0.1411 kPa
333.2 K	0.134 kPa
335.2 K	0.1628 kPa
338.1 K	0.1943 kPa

Source: the NIST ThermoML archive (doi:10.1016/j.jct.2009.09.003)
